# In patent US20250032478A1 (SURGE Therapeutics, Inc., priority 2021, published 2025):
# How the values were obtained:
# [1] = system: 4T1-Luc2 breast cancer cells; assay: Survival of tumor resection mice, composition placed at tumor resection site; assay type: in vivo, female BALB/c mice
# Description: 4T1-Luc2 breast cancer cells were cultured in RPMI-1640 medium, with 10% fetal bovine serum (FBS) and 1% penicillin/streptomycin. All cells were cultured in a 37° C. in a humidified incubator, with 5% Co2.
# All animal experiments were performed using 6-8 weeks old female BALB/c mice (Jackson Laboratories, #000651). For animal survival studies, 10^5 4T1-Luc2 cells were inoculated orthotopically into the fourth mammary fat pad of a mouse. Mice were size-matched and randomly assigned to treatment groups, and surgery was performed on day 10 or day 12 after tumor inoculation. Tumor sizes were measured with calipers. For primary tumor resection, mice were anesthetized with 2% isoflurane, the tumor was resected, and a hydrogel was placed in the surgical site at the time of surgery.
# In some embodiments, female BALB/cJs mice were inoculated orthotopically with 100,000 breast cancer cells (e.g., 4T1-Luc2 cells).
# [2] = Visual solubility assessment of Resiquimod Form I; assay type: physicochemical; settings: room temperature
# [3] = Hygroscopicity of solid form; assay type: physicochemical
# [4] = Solubility in sodium phosphate buffered saline comprising 10 wt % poloxamer 407; assay type: physicochemical
# [5] = in polymer combination of 8-12.5% or 6-11% (w/w) poloxamer (e.g. 10% P407) and 1-5% (w/w) HA (e.g. 4% HA 119 KDa), at tumor resection site, FIG. 29
smiles,measurement,setting,value
"CCOCc1nc2c(N)nc3ccccc3c2n1CC(C)(C)O [resiquimod, Resiquimod]",efficacy vs chemically-crosslinked hyaluronic acid hydrogel (HyStem) incorporated with resiquimod,"[1]; in crosslinked hydrogel of 8-13.5% (w/w) Poloxamer (e.g. 10% P407) and 0.6-1.5% (w/w) HA (e.g. 1% HA 1.5 MDa), FIG. 27A-E",comparable to or better than
same,survival time longer than control group receiving the hydrogel without resiquimod,"[1]; in crosslinked hydrogel of 8-13.5% or 6-11% (w/w) Poloxamer (e.g. 10% P407) and 0.6-1.5% (w/w) HA (e.g. 1% HA 1.5 MDa), at tumor resection site, FIG. 27A-E",at least 50%
same,survival rate vs control group receiving the hydrogel without resiquimod,"[1]; in crosslinked hydrogel of 8-13.5% or 6-11% (w/w) Poloxamer and 0.6-1.5% (w/w) HA, at tumor resection site, FIG. 27A-E",much higher survival rate
same,survival time vs control group receiving polymer combination without resiquimod,"[1]; in polymer combination of 8-12.5% or 6-11% (w/w) poloxamer (e.g. 8%, 10% or 12.5% P407) and 1.2-2.75% (w/w) HA (e.g. 1.625% or 2.25% HA 730 KDa), at tumor resection site, FIG. 28A-D",survived over a longer period of time
same,survival rate vs control group receiving polymer combination without resiquimod,[1]; [5],higher survival rate
same,survival time vs control group receiving polymer combination without resiquimod,[1]; [5],survived over a longer period of time
same,survival rate vs control group receiving polymer combination without resiquimod,"[1]; in polymer combination of 8-12.5% or 6-11% (w/w) poloxamer and 1.2-2.75% (w/w) HA 730 KDa, at tumor resection site, FIG. 28A-D",higher survival rate
"CCOCc1nc2c(N)nc3ccccc3c2n1CC(C)(C)O [Resiquimod Form I, Resiquimod]",Observation (visual solubility),"[2]; 1-Butanol, 0.5 mL added to 10 mg",Light hazy solution
same,Observation (visual solubility),"[2]; 1-Propanol, 0.5 mL added to 10 mg",Light hazy solution
same,Observation (visual solubility),"[2]; 2-Butanol, 0.5 mL added to 10 mg",Light hazy solution
same,Observation (visual solubility),"[2]; 2-Ethoxyethanol, 0.25-0.5 mL added to 10 mg",Light hazy solution throughout
same,Observation (visual solubility),"[2]; 2-Methoxyethanol, 0.25-0.5 mL added to 10 mg",Light hazy solution throughout
same,Observation (visual solubility),"[2]; 2-Methyl THF, 0.25 mL added to 10 mg",Clear solution
same,Observation (visual solubility),"[2]; 2-Propanol, 0.5 mL added to 10 mg",Suspension
same,Observation (visual solubility),"[2]; Acetone, 0.5 mL added to 10 mg",Suspension
same,Observation (visual solubility),"[2]; Acetonitrile, 0.5 mL added to 10 mg",Suspension
same,Observation (visual solubility),"[2]; Amyl alcohol, 0.5 mL added to 10 mg",Light hazy solution
same,Observation (visual solubility),"[2]; Anisole, 0.5 mL added to 10 mg",Suspension
same,Observation (visual solubility),"[2]; CPME, 0.5 mL added to 10 mg",Suspension
same,Observation (visual solubility),"[2]; Chloroform, 0.5 mL added to 10 mg",Light hazy solution
same,Observation (visual solubility),"[2]; Cyclohexane, 0.5 mL added to 10 mg",Suspension
same,Observation (visual solubility),"[2]; DMP, 0.5 mL added to 10 mg",Suspension
same,Observation (visual solubility),"[2]; Dichloromethane, 0.5 mL added to 10 mg",Light hazy solution
same,Observation (visual solubility),"[2]; Diethyl ether, 0.5 mL added to 10 mg",Suspension
same,Observation (visual solubility),"[2]; Ethanol, 0.25-0.5 mL added to 10 mg",Light hazy solution throughout
same,Observation (visual solubility),"[2]; Ethyl acetate, 0.5 mL added to 10 mg",Suspension
same,Observation (visual solubility),"[2]; Heptane, 0.5 mL added to 10 mg",Suspension
same,Observation (visual solubility),"[2]; Hexane, 0.5 mL added to 10 mg",Suspension
same,Observation (visual solubility),"[2]; Isobutanol, 0.5 mL added to 10 mg",Light hazy solution
same,Observation (visual solubility),"[2]; Isobutyl acetate, 0.5 mL added to 10 mg",Suspension
same,Observation (visual solubility),"[2]; Isopropyl acetate, 0.5 mL added to 10 mg",Suspension
same,Observation (visual solubility),"[2]; MEK, 0.5 mL added to 10 mg",Suspension
same,Observation (visual solubility),"[2]; MIBK, 0.5 mL added to 10 mg",Suspension
same,Observation (visual solubility),"[2]; MIPK, 0.5 mL added to 10 mg",Suspension
same,Observation (visual solubility),"[2]; MTBE, 0.5 mL added to 10 mg",Suspension
same,Observation (visual solubility),"[2]; Methanol, 0.25-0.5 mL added to 10 mg",Light hazy solution throughout
same,Observation (visual solubility),"[2]; Methyl acetate, 0.5 mL added to 10 mg",Suspension
same,Observation (visual solubility),"[2]; Nitromethane, 0.5 mL added to 10 mg",Suspension
same,Observation (visual solubility),"[2]; Octane, 0.5 mL added to 10 mg",Suspension
same,Observation (visual solubility),"[2]; Pentane, 0.5 mL added to 10 mg",Suspension
same,Observation (visual solubility),"[2]; Petroleum Ether, 0.5 mL added to 10 mg",Suspension
same,Observation (visual solubility),"[2]; Propylene glycol, 0.25-0.5 mL added to 10 mg",Light hazy solution throughout
same,Observation (visual solubility),"[2]; THF, 0.25-0.5 mL added to 10 mg",Light hazy solution
same,Observation (visual solubility),"[2]; Toluene, 0.5 mL added to 10 mg",Suspension
same,Observation (visual solubility),"[2]; Water, 0.5 mL added to 10 mg",Suspension
same,Observation (visual solubility),"[2]; Xylene, 0.5 mL added to 10 mg",Suspension
same,Observation (visual solubility),"[2]; p-Dioxane, 0.5 mL added to 10 mg",Light hazy solution
same,hygroscopicity,[3],notably low hygroscopicity
same,solubility,[4],increased solubility
